Source: patent US8895752B2, “Alkylsulfonyl-substituted thiazolide compounds” (priority 2007, dated 2014)
Where “and” joins values, the source holds several entries; their conditions need not be identical. Equal entries are not always repeated. Where two headings read alike, the source gives them in different places.

How the values were obtained:
[1] = tested on: AVA5 cells; experiment: Cytotoxicity by neutral red dye uptake in AVA5 cells; assay type: cell-based; conditions: Genotype 1b replicon, 3 days
[2] = tested on: HBV; experiment: HBV antiviral assay in confluent 2.2.15 cell cultures (HBV DNA, quantitative blot hybridization); assay type: cell-based, Hepatitis B Virus
Protocol: EC50, EC90 and CC50 values (±standard deviations [S.D.]) were calculated by linear regression analysis using data combined from all treated cultures (Korba and Gerin, 1992; Okuse et al., 2005). […] Selectivity index (S.I.) was calculated as CC50/EC90 for HBV assays and CC50/EC50 for HCV assays. EC90 values were used for calculation of the S.I. in HBV assays since at least a 3-fold depression of HBV DNA levels is typically required to achieve statistical significance in this assay system (Korba and Gerin, 1992).

[3] = tested on: 2.2.15 cells; experiment: Cytotoxicity by neutral red dye uptake in 2.2.15 cells; conditions: confluent 2.2.15 cultures, nine daily doses, neutral red uptake
Protocol: (§1) HBV antiviral assays were conducted as previous described (Korba and Gerin, 1992).
(§2) EC50, EC90 and CC50 values (±standard deviations [S.D.]) were calculated by linear regression analysis using data combined from all treated cultures (Korba and Gerin, 1992; Okuse et al., 2005). […] Selectivity index (S.I.) was calculated as CC50/EC90 for HBV assays and CC50/EC50 for HCV assays. EC90 values were used for calculation of the S.I. in HBV assays since at least a […] depression of HBV DNA levels is typically required to achieve statistical significance in this assay system (Korba and Gerin, 1992). For combination treatments, EC50, EC90, CC50 and S.I. are presented for the first compound listed. The molar ratio of the compounds in each combination is also indicated.

[4] = tested on: HCV replicon, sub-genomic CON1, genotype 1b; experiment: 3-day HCV replicon assay in AVA5 cells (intracellular HCV RNA, blot hybridization); assay type: cell-based, Hepatitis C Virus; conditions: Genotype 1b replicon; for EC50 / EC90: 3 days, first compound listed for combinations
Protocol: (§3) Antiviral activity of test compounds was assessed in a 3-day assay using the stably-expressing HCV replicon cell line, AVA5 (sub-genomic CON1, genotype 1b) (Blight et al., 2000) maintained as sub-confluent cultures on 96-well plates as previously described (Okuse et al., 2005). Antiviral activity was determined by blot hybridization analysis of intracellular HCV RNA (normalized to the level of cellular B-actin RNA in each culture sample) and cytotoxicity was assessed by neutral red dye uptake after 3 days of treatment. Additional studies were performed using Huh7 cells containing another HCV replicon, H/FL-Neo, a genotype 1a full length construct (Blight et al., 2003). For studies involving human serum, standard culture medium (which contains 10% fetal bovine serum) and assay conditions were maintained.
as §2

[5] = tested on: HBV Mutant L180M/M204V; experiment: 5-day transient transfection assay in Huh7 cells, intracellular HBV RI by Southern blot; assay type: cell-based, Hepatitis B Virus
Protocol: (§4) Activity against LMV-resistant (Allen et al., 1998) and ADV-resistant (Angus et al., 2003) HBV mutants was performed in a 5-day assay using a transient transfection method as previously described (Iyer et al., 2004). Antiviral activity was determined by quantitative Southern blot hybridization of intracellular HBV DNA replication intermediates (HBV RI).

[6] = tested on: HBV Mutant M204I; experiment: as above; assay type: cell-based, Hepatitis B Virus
Protocol: as §4

[7] = tested on: HBV Mutant L180M; experiment: as above; assay type: cell-based, Hepatitis B Virus
Protocol: as §4

[8] = tested on: HBV Mutant M204V; experiment: as above; assay type: cell-based, Hepatitis B Virus
Protocol: as §4

[9] = tested on: HBV Mutant N236T; experiment: as above; assay type: cell-based, Hepatitis B Virus
Protocol: as §4

[10] = tested on: Wild-type HBV; experiment: as above; assay type: cell-based, Hepatitis B Virus; conditions: Wild-type, Huh7 transient transfection; for EC50: read-out: EC50
[11] = tested on: HCV replicon; experiment: Primary HCV replicon cell assay; assay type: cell-based, Hepatitis C Virus
Protocol: as §3, §2

[12] = Primary HCV replicon cell assay, cytotoxicity; conditions: human, HCV replicon cells (primary assay), CC50, primary assay
Protocol: as §3, §2

[13] = Cytotoxicity by neutral red dye uptake in AVA5 cells; assay type: cell-based; conditions: human, AVA5 cells (HCV replicon, sub-genomic CON1), Genotype 1b replicon
[14] = Cytotoxicity by neutral red dye uptake in Huh7 cells containing H/FL-Neo; assay type: cell-based; conditions: human; Genotype 1a replicon
[15] = tested on: HCV replicon H/FL-Neo, genotype 1a full length; experiment: HCV replicon assay in Huh7 cells containing H/FL-Neo; assay type: cell-based, Hepatitis C Virus; conditions: Genotype 1a replicon
Protocol: as §3, §2

[16] = tested on: HCV replication; experiment: HCV replicon assay, 6 days total duration, NTZ monotherapy pre-treatment and combination therapy; assay type: cell-based; conditions: Hepatitis C virus, 144 h, first named drug for combinations
Protocol: as §3, with “Antiviral activity of test compounds was assessed in a 3-day assay using the stably-expressing” left out
as §2

[17] = Cytotoxicity by neutral red dye uptake in 2.2.15 cells; conditions: human
Protocol: as §1, §2

[18] = 2.2.15 cells, nine daily doses, read-out: Extracellular virion DNA EC50
[19] = 2.2.15 cells, nine daily doses, read-out: Extracellular virion DNA EC90
[20] = 2.2.15 cells, nine daily doses, read-out: Intracellular HBV RI EC50
[21] = 2.2.15 cells, nine daily doses, read-out: Intracellular HBV RI EC90

Cc1ccc(C(=O)Nc2ncc(Cl)s2)c(O)c1 [RM4852]
CC50 [1]: 6.7 ± 0.4 µM
EC50 [2, 18]: 1 ± 0.1 µM
EC90 [2, 19]: 3.3 ± 0.3 µM
EC50 [2, 20]: 2.7 ± 0.3 µM
EC90 [2, 21]: 6.3 ± 0.7 µM
CC50 [3]: > 100 µM
EC50 [4]: > 20 µM
EC90 [4]: > 20 µM

CC(C)(C)C(=O)OCOP(=O)(COCCn1cnc2c(N)ncnc21)OCOC(=O)C(C)(C)C [ADV, adefovir dipovoxil]
EC50 [2, 18]: 1 ± 0.2 µM
EC90 [2, 19]: 3 ± 0.3 µM
EC50 ([5]; L180M/M204V, read-out: EC50): 2.5 ± 0.3 µM
EC90 ([5]; L180M/M204V, read-out: EC90): 7.6 ± 0.8 µM
EC50 ([6]; M204I, read-out: EC50): 2.5 ± 0.3 µM
EC90 ([6]; M204I, read-out: EC90): 8.5 ± 1 µM
EC50 ([7]; L180M, read-out: EC50): 2.6 ± 0.3 µM
EC90 ([7]; L180M, read-out: EC90): 7.3 ± 0.8 µM
EC50 ([8]; M204V, read-out: EC50): 1.5 ± 0.2 µM
EC90 ([8]; M204V, read-out: EC90): 7.2 ± 0.8 µM
EC50 ([9]; N236T, read-out: EC50): 11 ± 1.3 µM
EC90 ([9]; N236T, read-out: EC90): 32 ± 3.6 µM
EC90 [10]: 7 ± 0.8 µM
EC50 [10]: 2 ± 0.2 µM
CC50 [3]: > 300 µM

CC(=O)Oc1ccccc1C(=O)Nc1ncc(S(C)(=O)=O)s1 [Compound 7, 2-(5-(methylsulfonyl)thiazol-2-ylcarbamoyl)phenyl acetate]
EC50 ([11]; Hepatitis C virus): > 10 µM
EC90 ([11]; Hepatitis C virus): > 10 µM
CC50 at 3 days [12]: 20 µM

Cc1cccc(C(=O)Nc2ncc(Cl)s2)c1O [RM4851]
CC50 [1]: 5.6 ± 0.3 µM
EC50 [2, 18]: > 10 µM
EC90 [2, 19]: > 10 µM
EC50 [2, 20]: > 10 µM
EC90 [2, 21]: > 10 µM
CC50 [3]: > 100 µM
EC50 [4]: > 20 µM
EC90 [4]: > 20 µM

C[C@@]1(O)[C@H](O)[C@@H](CO)O[C@H]1n1ccc(N)nc1=O [2′CmeC, 2′-C-methyl cytidine]
CC50 at 3 days [13]: > 300 µM
CC50 at 3 days [14]: > 300 µM
Selectivity Index ([4]; CC50/EC50): >188
EC50 ([4]; Hepatitis C virus, Ava5, 72 h): 1.6 ± 0.2 µM
EC90 ([4]; Hepatitis C virus, Ava5, 72 h): 8.3 ± 0.7 µM
Selectivity Index ([15]; CC50/EC50): >167
EC50 ([15]; Hepatitis C virus, Huh-7): 1.8 ± 0.2 µM
EC90 ([15]; Hepatitis C virus, Huh-7): 8.1 ± 0.8 µM
EC50 [16]: 1.3 ± 0.2 µM
EC90 [16]: 5.8 ± 0.9 µM

CS(=O)(=O)c1csc(NC(=O)c2ccccc2O)n1 [Compound 60, 2-hydroxy-N-(4-(methylsulfonyl)thiazol-2-yl)benzamide]
EC90 [11]: 0.654 µM
EC90 ([11]; Hepatitis C virus): 0.585 µM

O=C(Nc1ncc(Cl)s1)c1ccccc1O [RM4848]
CC50 [1]: 15 ± 0.1 µM
EC50 [2, 18]: 0.37 ± 0.07 µM
EC90 [2, 19]: 1.7 ± 0.2 µM
CC50 [3]: > 100 µM
EC50 [4]: > 20 µM
EC90 [4]: > 20 µM

CCCCSc1cnc(NC(=O)c2ccccc2O)s1
melting point: 180 to 181 °C

CCCCSc1cnc(NC(=O)c2ccccc2OC(C)=O)s1
melting point: 100 to 101 °C

CSc1cnc(NC(=O)c2cccc(OC(C)=O)c2)s1
melting point: 135.2 to 136.2 °C

CCCCS(=O)(=O)c1cnc(NC(=O)c2ccccc2O)s1
melting point: 235 to 236 °C

Nc1ccn([C@@H]2CS[C@H](CO)O2)c(=O)n1 [LMV, lamivudine]
Selectivity Index Virion ([2]; CC50/EC90, extracellular virion DNA): 15646
Selectivity Index RI ([2]; CC50/EC90, intracellular HBV RI): 4267
EC50 ([2]; Hepatitis B virus, read-out: Intracellular HBV RI EC50): 0.16 ± 0.03 µM
EC50 ([2]; Hepatitis B virus, 2.2.15 cells, Table 3 experiment, read-out: HBV R.I. EC50): 0.16 ± 0.02 µM
EC90 ([2]; Hepatitis B virus, 2.2.15 cells, Table 3 experiment, read-out: HBV R.I. EC90): 0.56 ± 0.07 µM
EC50 ([2]; Hepatitis B virus, 2.2.15 cells, Table 3 experiment, read-out: Virion production EC50): 0.05 ± 0.01 µM
EC90 ([2]; Hepatitis B virus, 2.2.15 cells, Table 3 experiment, read-out: Virion production EC90): 0.15 ± 0.02 µM
EC50 ([2]; Hepatitis B virus, 2.2.15 cells, nine daily doses, read-out: Extracellular virion DNA EC50): 0.05 ± 0.01 µM
EC90 ([2]; Hepatitis B virus, 2.2.15 cells, nine daily doses, read-out: Extracellular virion DNA EC90): 0.15 ± 0.02 µM
EC90 ([2]; Hepatitis B virus, 2.2.15 cells, nine daily doses, read-out: Intracellular HBV RI EC90): 0.55 ± 0.06 µM
EC50 ([5]; Hepatitis B virus, Huh-7): > 100 µM
EC90 ([5]; Hepatitis B virus, Huh-7): > 100 µM
EC50 ([6]; Hepatitis B virus, Huh-7): > 100 µM
EC90 ([6]; Hepatitis B virus, Huh-7): > 100 µM
EC50 ([7]; Hepatitis B virus, Huh-7): 16 ± 2 µM
EC90 ([7]; Hepatitis B virus, Huh-7): 46 ± 5.6 µM
EC50 ([8]; Hepatitis B virus, Huh-7): > 100 µM
EC90 ([8]; Hepatitis B virus, Huh-7): > 100 µM
EC50 ([9]; Hepatitis B virus, Huh-7): 0.3 ± 0.1 µM
EC90 ([9]; Hepatitis B virus, Huh-7): 1.2 ± 0.2 µM
EC90 ([10]; Hepatitis B virus, Huh-7): 0.9 ± 0.2 µM
EC50 ([10]; Hepatitis B virus, Huh-7): 0.2 ± 0.1 µM
CC50 at 9 days [17]: 2350 ± 88 µM

CS(=O)(=O)Oc1ccccc1C(=O)Nc1nccs1 [Compound 11, 2-(thiazol-2-ylcarbamoyl)phenyl methanesulfonate]
EC50 ([11]; Hepatitis C virus): > 10 µM
EC90 ([11]; Hepatitis C virus): > 10 µM
CC50 at 3 days [12]: > 100 µM
melting point: 185.5 to 187.8 °C

CSc1cnc(NC(=O)c2ccccc2O)s1
melting point: 225 to 226 °C

CSc1cnc(NC(=O)c2ccc(OC(C)=O)cc2)s1
melting point: 193.3 to 195.5 °C and 193.5 to 195.5 °C

CC(=O)Oc1ccccc1C(=O)Nc1nc(S(C)(=O)=O)cs1 [Compound 62, 2-{[4-(methylsulfonyl)-1,3-thiazol-2-yl]carbamoyl}phenyl acetate]
EC50 ([11]; Hepatitis C virus): > 10 µM
EC90 ([11]; Hepatitis C virus): > 10 µM
CC50 at 3 days [12]: > 100 µM
